This is an account of results in patent US5932709A (University of Michigan, priority 1997, dated 1999).

The subject of one data set is topoisomerase I. Conditions: in words; hydrochloride; cited from earlier work.
The conditions of data set [1]: as hydrochloride trihydrate; cited from earlier work.
Another data set has as its system carcinoma cells. Conditions: in words; hydrochloride; cited from earlier work.
A further data set relates to tumor growth. Conditions: in words; cited from earlier work.
Data set [2] can be described thus: Water solubility in phosphate buffered saline (spectrophotometric assay). Format: physicochemical. As to conditions: aqueous buffer; water solubility; PBS pH 7.5, room temperature, 24 hr. On the procedure: Approximately 5 mg of test compound was suspended in 1 mL of PBS in a 1.5 mL cryovial. The suspensions were mixed continuously on a Thermolyne vari-mix at room temperature for 24 hr. The suspensions were then centrifuged at 14000×g for 2 minutes to separate the undissolved materials. The supernatant fluids were diluted appropriately with PBS and the ultraviolet spectrums were recorded on a Beckman 640 DU spectrophotometer. For comparison, a standard stock (2 mg/mL in DMSO) solution was prepared for each analog. The ultraviolet spectrum of a 20 of 40 μg/mL standard working solution was measured. The water solubility of each analog was calculated based on the following formula:
Cunknown =Cstandard ×(Aunknown
where Cunknown is the concentration of the unknown solution to be determined; Cstandard is the concentration of the standard working solution (either 20 or 40 μg/mL); Astandard is the absorbance at 350 nm of the standard working solution; DDilution is the appropriate dilution factor used so that the absorbance of the unknown working solution is within the dynamic range of the UV spectrophotometer (less than 2 absorbance units).

Data set [3] deals with T1, human placental topoisomerase I (Homo sapiens, UniProt P11387).
T1 construct: purchased TopoGen; host or cells: human placenta
T1 sequence (P11387 1-765): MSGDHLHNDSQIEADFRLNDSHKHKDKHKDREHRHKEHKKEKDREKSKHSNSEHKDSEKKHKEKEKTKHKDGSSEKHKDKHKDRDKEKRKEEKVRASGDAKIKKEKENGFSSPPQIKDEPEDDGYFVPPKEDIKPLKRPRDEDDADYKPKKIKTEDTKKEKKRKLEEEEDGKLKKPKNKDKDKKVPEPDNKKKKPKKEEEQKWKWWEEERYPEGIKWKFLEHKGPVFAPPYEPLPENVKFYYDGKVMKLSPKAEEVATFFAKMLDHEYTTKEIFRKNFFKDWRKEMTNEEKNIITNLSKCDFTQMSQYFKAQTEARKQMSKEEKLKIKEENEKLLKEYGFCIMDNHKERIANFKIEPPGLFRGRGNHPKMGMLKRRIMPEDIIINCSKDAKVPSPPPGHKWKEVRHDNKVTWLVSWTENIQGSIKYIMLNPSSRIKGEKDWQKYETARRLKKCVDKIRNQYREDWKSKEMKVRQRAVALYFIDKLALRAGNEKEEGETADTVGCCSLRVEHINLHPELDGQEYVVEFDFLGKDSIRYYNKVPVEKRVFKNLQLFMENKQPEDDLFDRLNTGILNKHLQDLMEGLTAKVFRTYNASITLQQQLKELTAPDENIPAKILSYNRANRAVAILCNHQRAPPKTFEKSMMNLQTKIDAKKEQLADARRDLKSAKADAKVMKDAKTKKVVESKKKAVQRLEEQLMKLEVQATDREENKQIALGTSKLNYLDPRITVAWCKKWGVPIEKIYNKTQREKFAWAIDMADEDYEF
The data set can be described thus: Inhibition of topoisomerase I catalytic activity (relaxation of supercoiled SV40 DNA). The data set is classed as biochemical. Conditions: highest concentration tested (100 μg/mL), in words. The procedure:
The topoisomerase I catalytic activity was measured by converting the supercoiled SV40 DNA (Form I) to the relaxed form (Form Io). All reactions were performed in 20 μL reaction buffer (Tris-HCl, 10 mM, pH 7.5; EDTA, 1 mM; NaCl, 100 mM) with 0.25 μg SV40 DNA, 0.5 unit of human placental topoisomerase I (TopoGen) and graded concentrations of the analog tested. The reaction mixtures were incubated at 37° C. for 30 minutes. […] Ten μL of the reaction mixture was loaded onto a 1% agarose gel prepared in TAE buffer containing 2 μg/mL chloroquine; and the electrophoresis was performed at 82 volt for 4.5 hr in the TAE buffer containing 2 μg/mL chloroquine. […] The gels were then stained with 0.5 μg/mL ethidium bromide solution for 30 min or longer (if chloroquine is present during the electrophoresis step), and destained with 5 changes of deionized water. […] The DNA bands (image) on the negative were densitometrically scanned with a Molecular Dynamic Personal Densitometer. The percent inhibition of Toposiomerase I activity is calculated based on the following equation:
% Inhibition=(FSC(E+D) -FSC(E))/(FSC(C)
where FSC(E+D) represents fraction of supercoiled DNA in the presence of enzyme and drug; FSC(E) represents fraction of supercoiled DNA in the presence of enzyme alone; FSC(C) represents fraction of supercoiled DNA in the untreated SV40 DNA; the IC50 value was estimated using the same four-parameter logistic equation described in the in vitro growth inhibition studies.

In a further data set the test system is tumor cells. In words: MTT growth inhibition across tumor cell lines (P388, P388/CPT, B16, HT-29, MCF-7M). The data set is classed as cell-based. As to conditions: vs camptothecin. The procedure:
(§1) [See "Rapid Colorimetric Assay For Cellular Growth And Survival: Application To Proliferation And Cytotoxicity Assays," J. Immun. Meth. 65:55 (1983)]. The assay utilizes a tetrazolium salt to quantitatively measure mammalian cell survival and proliferation by colorimetric methods. In particular, MTT, a pale yellow compound with minimal absorbance, is incubated with cancerous cells in addition to (or in the absence of) a particular camptothecin analog. Living cells with active mitochondrial enzymes metabolize the MTT into a dark blue/purple formazan product with high absorbance. The exact procedure used to test the camptothecin analogs of the present invention is described below.
Exponentially growing cells (1-2×10^3 cells, unless specified otherwise) in 0.1 mL medium were seeded on day 0 in a 96-well microtiter plate. On day 1, 0.1 mL aliquots of medium containing graded concentrations of test analogs were added to the cell plates. After incubation at 37° C. in a humidified incubator for 3 days (P388, P388/CPT, B16) or 6 days (HT-29, MCF-7M), the plates were centrifuged briefly and 100 μL of the growth medium was removed. Cell cultures were incubated with 50 μL of 3-(4,5-dimethylthiazol-2-yl)-2,5-diphenyl-tetrazolium bromide [MTT, 1 mg/mL in Dulbecco's phosphate buffered saline (PBS)] for 4 hr at 37° C. The resulting purple formazan precipitate was solubilized with 200 μL of 0.04 N HCl in isopropyl alcohol. Absorbance was monitored in a BioRad Model 3550 Microplate Reader at a test wavelength of 570 nm and a reference wavelength of 630 nm. The absorbance is transferred to a PC 486 computer. The IC50 values were determined by a computer program (EZ-ED50) that fits all of the data to the following four-parameter logistic equation: […]

In data set [4] the test system is MCF-7 human breast tumor cells. In words: MTT growth inhibition, MCF-7. Format: cell-based. As to conditions: MCF7, 144 h, MCF-7, MTT, 6 days, read-out: Growth Inhibitory Activity IC50. On the procedure:
(§2) Camptothecin was used as a control to test the anti-cancer efficacy of the novel camptothecin analogs of the present invention.
(§3) Murine B16 melanoma cell line was grown in RPMI 1640 medium supplemented with 10% heat-inactivated fetal bovine serum, 2 mM L-glutamine, 50 units/mL penicillin, 50 μg/mL streptomycin, 25 μg/mL gentamicin, 0.75% sodium bicarbonate 10 mM HEPES buffer (pH 7.4), and 0.06 mg/mL AntiPPLO. Murine P388 leukemic cell line and human HT-29 colon adenocarcinoma line were maintained in RPMI 1640 medium supplemented with 10% heat-inactivated fetal bovine serum. […] MCF-7M human breast adenocarcinoma was maintained in IMEM supplemented with 5% non heat-inactivated fetal bovine serum and 1 nM insulin.
as §1
(§4) Exponentially growing cells (1-2×10^3 cells, unless specified otherwise) in 0.1 mL medium were seeded on day 0 in a 96-well microtiter plate. On day 1, 0.1 mL aliquots of medium containing graded concentrations of test analogs were added to the cell plates. After incubation at 37° C. in a humidified incubator for 3 days (P388, P388/CPT, B16) or 6 days (HT-29, MCF-7M), the plates were centrifuged briefly and 100 μL of the growth medium was removed. Cell cultures were incubated with 50 μL of 3-(4,5-dimethylthiazol-2-yl)-2,5-diphenyl-tetrazolium bromide [MTT, 1 mg/mL in Dulbecco's phosphate buffered saline (PBS)] for 4 hr at 37° C. The resulting purple formazan precipitate was solubilized with 200 μL of 0.04 N HCl in isopropyl alcohol. Absorbance was monitored in a BioRad Model 3550 Microplate Reader at a test wavelength of 570 nm and a reference wavelength of 630 nm. The absorbance is transferred to a PC 486 computer. The IC50 values were determined by a computer program (EZ-ED50) that fits all of the data to the following four-parameter logistic equation:
(§5) Y=(Amax -Amin)/(1+[X/IC^50 ])^n +Amin
(§6) where Amax is the absorbance of control cells, Amin is the absorbance of cells in the presence of highest agent concentration, IC^50 is the concentration of agent that inhibits the cell growth by 50% of control cells (based on the absorbance) and n is the slope of the curve.

Data set [5] deals with B16 murine melanoma cells. In words: MTT growth inhibition, B16. Format: cell-based. As to conditions: Mus musculus, 72 h, 3 days, read-out: Growth Inhibitory Activity IC50. On the procedure:
as §2, §3, §1, §4, §5, §6

Data set [6] deals with P388 murine leukemia cells. The data set can be described thus: MTT growth inhibition, P388. The data set is classed as cell-based. As to conditions: Mus musculus, 72 h, 3 days, read-out: Growth Inhibitory Activity IC50. The procedure:
as §2, §3, §1, §4, §5, §6

Data set [7] deals with HT-29 human colon adenocarcinoma cells. In words: MTT growth inhibition, HT-29. Format: cell-based. As to conditions: 144 h, HT-29, MTT, 6 days, read-out: Growth Inhibitory Activity IC50. On the procedure:
as §2, §3, §1, §4, §5, §6

The conditions of data set [8]: cited from earlier work.
Data set [9] concerns P388/CPT CPT-resistant murine leukemia cells. The data set can be described thus: MTT growth inhibition, P388/CPT. Format: cell-based. Conditions: Mus musculus, 72 h, 3 days, read-out: Growth Inhibitory Activity IC50. On the procedure: as §2, §3, §1, §4, §5, §6

Converted amounts (≈) assume the structure as drawn. “Also recorded” adds a separate entry of the source. Where a name gives a salt, the structure may show the parent alone.

`CCc1c2c(nc3ccc(OC(=O)N4CCC(N5CCCCC5)CC4)cc13)-c1cc3c(c(=O)n1C2)COC(=O)[C@]3(O)CC` [CPT-11, 7-ethyl-10-[4-(piperidino)-1-piperidino]carboxylcamptothecin hydrochloride]: the “inhibition of Topoisomerase I activity” value in the data set on topoisomerase I is reported as “inability to inhibit Topoisomerase I activity; also recorded: lack of topoisomerase I inhibitory activity”. The water solubility in data set [1] is 32000 µg/mL. Further, the “in vitro efficacy / activity” value in the data set with carcinoma cells is on record as “negligible in vitro activity”. In the data set with tumor growth, the “effectiveness against tumor growth in animal studies” value was “significant in vivo preclinical activity”.

A word on the solubility: it is how much of the substance goes into solution per volume. Higher therefore signals a readily soluble substance. For `CCCCCC(=O)O[C@]1(CC)C(=O)OCc2c1cc1n(c2=O)Cc2cc3ccccc3nc2-1` [HAR2, camptothecin 20-n-hexanoate], the solubility at 24 h in data set [2] was 2.9 µg/mL (≈ 6.49 µM). For the same molecule, the “topoisomerase I inhibition” value in data set [3] was “Neither the acetate (HAR3) nor the hexanoate (HAR2) inhibited the topoisomerase I activity”. For the same molecule, the “reduction of growth inhibitory activity” value in the data set on tumor cells is approximately 100 fold.

In the case of `CC[C@@]1(OC(C)=O)C(=O)OCc2c1cc1n(c2=O)Cc2cc3ccccc3nc2-1` [HAR3], the concentration in solution in data set [2] (solubility at 24 h) came to 6.5 µg/mL (≈ 16.6 µM). In data set [3], the “topoisomerase I inhibition” value is reported as “Neither the acetate (HAR3) nor the hexanoate (HAR2) inhibited the topoisomerase I activity”. The “reduction of growth inhibitory activity” value in the data set with tumor cells is on record as “approximately 10 fold”.

For orientation: IC50 means the concentration that gives 50% inhibition. Take `CC[C@@]1(O)C(=O)OCc2c1cc1n(c2=O)Cc2cc3ccccc3nc2-1` [camptothecin, reference compound]: the IC50 in data set [4] stood at 0.001 µg/mL (≈ 0.00287 µM); in data set [5], 0.015 µg/mL (≈ 0.0431 µM); in [6] it was 0.01 µg/mL (≈ 0.0287 µM); in [7], 0.002 µg/mL (≈ 0.00574 µM); in data set [9], 1.12 µg/mL (≈ 3.22 µM). In [2], this molecule registered a solubility at 24 h of 20 µg/mL (≈ 57.4 µM). Moreover, in [8] (human, in vivo), the “side effects in human clinical studies” value is “vomiting and diarrhea to myelosuppression and hemorrhagic cystitis”. Moreover, the “effectiveness against tumor growth in animal studies” value in the data set with tumor growth is listed as “significant efficacy in animal tumor models”.

`CC[C@@](O)(C(=O)O)c1cc2n(c(=O)c1CO)Cc1cc3ccccc3nc1-2` [sodium salt of camptothecin]: in [8] (sodium salt vs unmodified camptothecin, clinical trials), the anti-cancer efficacy result is recorded as “much less than unmodified camptothecin”.
